Tests used:
[1] = Diffusion of terbinafine HCl through the layers of the nail, Franz cells (Example 10): intermediate layer
Procedure: For each formulation, 2 nails (1 with the dorsal layer and 1 without the dorsal layer) are used per donor. The treatment time is 5 days with a new application of each formula every day. The amount of formula deposited daily on the surface of the nail is 10 μl/cm2.
For each donor, the thickness of the nails is measured. Then, for each donor, the nails are prepared in the following manner:
4 nails without dorsal layer: for the nails from this group, the dorsal face is removed using a miniature sander in order to reach the intermediate layer by removing 40% of the initial thickness of the nail,
The Franz type diffusion cells used are placed in a thermostatically-controlled bath in order to obtain a temperature of 32±1° C. at the surface of the nail. The nails are placed in the diffusion cell with the ventral side towards the receiving compartment, phosphate buffer (pH 7.4±0.1) containing 0.1% of Volpo (Oleth-20). During the experiment, the diffusion cells are placed in a thermostatically-controlled bath in order to obtain a temperature of 32±1° C. This temperature is checked before each withdrawal. […]
The samples, receiving liquids and nail extracts are then analysed by MS/MS. […]
The procedures of the study and also the amounts of terbinafine HCl in the various layers of the nail, dorsal and intermediate, were carried out and analysed according to the same protocol as before.

[2] = Diffusion of terbinafine HCl through the layers of the nail, Franz cells (Example 10): dorsal layer; format: in vitro ADME; details: 5 days
Source text: This temperature is checked before each withdrawal.

| factor of better diffusion in the intermediate layer relative to the dorsal layer ([1]; composition with amphoteric agent) | SMILES | increase of the penetration of terbinafine through the dorsal layer by the presence of the amphoteric agent (×) ([2]; 10% solution with vs without amphoteric agent) | factor of reduction of the amount of terbinafine HCl in the nail by the presence of the amphoteric agent ([2]; Lamisil Spray 1% with vs without amphoteric agent, dorsal layer) | factor of reduction of the amount of terbinafine HCl in the nail by the presence of the amphoteric agent ([1]; Lamisil Spray 1% with vs without amphoteric agent, intermediate layer, 5 days) |
| --- | --- | --- | --- | --- |
| 3 | CN(C/C=C/C#CC(C)(C)C)Cc1cccc2ccccc12.Cl [terbinafine HCl, terbinafine hydrochloride, reference compound] |  |  |  |
|  | CCCCCCCCCCCC[N+](C)(C)CC(=O)[O-] [amphoteric agent, Lauryl Dimethylaminoacetic Acid Betaine] | 3 | 3 | 3 |

Source: patent US20120309763A1, “ANTIFUNGAL COMPOSITION INTENDED TO BE APPLIED TO A PERFORATED NAIL” (priority 2009, published 2012)
